The source of these data is ChEMBL document CHEMBL3611995, “Chalcone scaffolds as anti-infective agents: structural and molecular target perspectives” (Eur J Med Chem, 2015).

Converted amounts (≈) assume the structure as drawn. Where only a bound is given, the exact number is not on record here.

For data set [1], the system named is Plasmodium falciparum. Nature of the data set: Inhibition of Plasmodium falciparum GST. The conditions noted are these: concentration not given here.
The subject of data set [2] is Plasmodium falciparum. Kind of data set: Anti-parasitic activity against chloroquine-susceptible Plasmodium falciparum 3D7 assessed as reduction in parasite maturation. It counts as functional.
Data set [3] deals with Leishmania donovani. Nature of the data set: Anti-leishmanial activity against Leishmania donovani infected in hamsters assessed as reduction in parasite load in liver at 5 to 150 mg/kg/day, po for 6 consecutive days. It counts as functional.
In data set [4] the test system is Leishmania donovani. Kind of data set: Anti-leishmanial activity against Leishmania donovani infected in hamsters assessed as reduction in parasite load in spleen at 20 mg/kg/day, ip for 6 consecutive days. The format is functional.
The nature of data set [5]: Inhibition of Plasmodium falciparum succinate-ubiquinone oxidoreductase.
The test system of data set [6] is Leishmania donovani. Nature of the data set: Anti-leishmanial activity against Leishmania donovani infected in hamsters assessed as reduction in parasite load in spleen at 5 to 150 mg/kg/day, po for 6 consecutive days. The format is functional.
The nature of data set [7]: Inhibition of Plasmodium falciparum Cytochrome b-c1 complex.
The test system of data set [8] is Leishmania donovani. Kind of data set: Anti-leishmanial activity against Leishmania donovani infected in hamsters assessed as reduction in parasite load in liver at 20 mg/kg/day, ip for 6 consecutive days. It counts as functional.
A short description of data set [9]: Inhibition of Saccharomyces cerevisiae beta-1,3-glucan synthase.
Data set [10] relates to Trichophyton rubrum. Nature of the data set: Antimicrobial activity against wild type Trichophyton rubrum MYA3108. It counts as functional.
Data set [11] is described as follows: Inhibition of Trichophyton rubrum FAS.
The nature of data set [12]: Inhibition of Saccharomyces cerevisiae chitin synthase-1.
Data set [13] concerns Trichophyton rubrum. Nature of the data set: Antimicrobial activity against Trichophyton rubrum with deltaTruMDR2 mutation. The format is functional.
Data set [14] in a line: Inhibition of Trypanosoma brucei trypanopain.
Another data set has as its target Plasmepsin II (Plasmodium falciparum, UniProt P46925). Kind of data set: (§1) Inhibition of Plasmodium falciparum plasmepsin 2.
The subject of another data set is Enterovirus. Nature of the data set: Antiviral activity against Rhinovirus infected in human HeLa cells. The format is functional, organism-based.
Data set [15] is described as follows: Cytotoxicity against human HeLa cells. It counts as cell-based.
The subject of data set [16] is Leishmania amazonensis. Nature of the data set: Anti-leishmanial activity against Leishmania amazonensis intracellular amastigotes. The conditions noted are these: read-out: ED50. It counts as functional.
Data set [17] concerns Leishmania amazonensis. Kind of data set: Anti-leishmanial activity against Leishmania amazonensis promastigotes. The conditions noted are these: read-out: ED50. The format is functional.
Data set [18] can be described thus: Inhibition of Trypanosoma cruzi trans-sialidase.
A short description of data set [19]: Inhibition of Plasmodium falciparum falcipain.
Data set [20] concerns Trichophyton rubrum. Kind of data set: Antimicrobial activity against Trichophyton rubrum. It counts as functional.
Data set [21] concerns Trichophyton rubrum. Kind of data set: Antimicrobial activity against Trichophyton rubrum clinical isolates. It counts as functional.
The test system of the next data set is Leishmania major. Kind of data set: Anti-leishmanial activity against Leishmania major. It counts as functional, organism-based.
Data set [22] deals with Plasmodium falciparum. Kind of data set: Anti-parasitic activity against chloroquine-resistant Plasmodium falciparum W2. It counts as functional, organism-based.
Data set [23] concerns Plasmodium falciparum. Kind of data set: Anti-parasitic activity against chloroquine-susceptible Plasmodium falciparum D6. The format is functional, organism-based.
Data set [24] is described as follows: Inhibition of beta-hematin formation. The format is physicochemical.
Data set [25] has as its system Plasmodium falciparum. Nature of the data set: Anti-parasitic activity against chloroquine-susceptible Plasmodium falciparum 3D7 assessed as reduction in parasite maturation at 50 ug/ml. The format is functional.
The target in data set [26] is Plasmepsin II (Plasmodium falciparum) (UniProt P46925). Described as §1. The conditions noted are these: concentration not given here.
Plasmepsin II (Plasmodium falciparum), sequence (P46925 125-453 limits assumed): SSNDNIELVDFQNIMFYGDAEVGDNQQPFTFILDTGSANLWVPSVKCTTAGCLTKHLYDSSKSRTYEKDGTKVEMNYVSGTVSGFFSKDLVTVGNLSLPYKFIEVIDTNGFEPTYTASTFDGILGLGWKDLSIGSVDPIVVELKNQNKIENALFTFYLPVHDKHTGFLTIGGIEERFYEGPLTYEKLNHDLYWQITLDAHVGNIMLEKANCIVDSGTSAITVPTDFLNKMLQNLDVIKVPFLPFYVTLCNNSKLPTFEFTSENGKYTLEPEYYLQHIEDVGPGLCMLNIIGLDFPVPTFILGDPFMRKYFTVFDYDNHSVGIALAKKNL
The nature of data set [27]: Selectivity index, ratio of cytotoxicity for human HeLa cells to IC50 for anti-parasitic activity against chloroquine-resistant Plasmodium falciparum W2. The format is toxicity, cell-based. The conditions noted are these: read-out: Selectivity Index.
Data set [28] relates to Plasmodium falciparum. Kind of data set: Anti-parasitic activity against Plasmodium falciparum assessed as inhibition of parasite development from ring to schizont stage. It counts as functional.
A short description of data set [29]: Inhibition of new permeation pathway in erythrocytes (unknown origin) at 20 uM by sorbitol-induced hemolysis assay. It counts as functional, cell-based. The conditions noted are these: Erythrocyte.
The subject of data set [30] is Plasmodium falciparum. Nature of the data set: Anti-parasitic activity against Plasmodium falciparum. It counts as functional.

Plasmepsin II, sequence (P46925 whole entry): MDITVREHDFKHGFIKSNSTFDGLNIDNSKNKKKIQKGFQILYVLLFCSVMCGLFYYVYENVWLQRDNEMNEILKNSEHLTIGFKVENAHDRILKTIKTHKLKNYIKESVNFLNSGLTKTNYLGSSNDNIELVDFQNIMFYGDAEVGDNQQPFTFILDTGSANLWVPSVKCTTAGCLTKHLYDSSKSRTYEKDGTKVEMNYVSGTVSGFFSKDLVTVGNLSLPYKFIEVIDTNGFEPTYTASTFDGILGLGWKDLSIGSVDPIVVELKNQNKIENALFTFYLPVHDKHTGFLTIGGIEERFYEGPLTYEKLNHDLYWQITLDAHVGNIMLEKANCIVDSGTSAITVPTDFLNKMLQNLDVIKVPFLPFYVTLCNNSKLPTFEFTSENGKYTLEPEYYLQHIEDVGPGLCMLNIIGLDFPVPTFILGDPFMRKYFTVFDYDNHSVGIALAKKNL

`COc1ccc(/C=C/C(=O)c2ccc(-n3nnc4ccccc43)cc2)cc1`: in the data set with Plasmodium falciparum [1], the inhibition came out at 84%.
Turning to `O=C(/C=C/c1cc2ccccc2nc1Cl)c1cc(Br)cc(Cl)c1O`, the MIC with Plasmodium falciparum [2] is 10 µg/mL (≈ 23.6 µM).
On to `C=CC(C)(C)c1cc(/C=C/C(=O)c2ccc(O)cc2)c(OC)cc1O` [LICOAGROCHACONE A], for which the “inhibition (INH)” value in the data set with Leishmania donovani [3] and with Leishmania donovani [6] was greater than 65% throughout. Further, the inhibition in vivo at 20 mg/kg/day with Leishmania donovani [4] and in the data set on Leishmania donovani [8] was greater than 96% in each case. The values for the IC50 in data set [5] and in data set [7] were no less than 100000 nM and 10800 nM, respectively.
For `O=C(/C=C/c1ccccc1)c1ccccc1` [CHALCONE], the values for the IC50 in data set [9], in [11] and in data set [12] were 0.14 µg/mL (≈ 0.672 µM), 68.23 µg/mL (≈ 328 µM) and 0.02 µg/mL (≈ 0.096 µM), respectively. For the same molecule, the MIC came to 7.5 µg/mL (≈ 36 µM) in the data set on Trichophyton rubrum [10] and 1.9 µg/mL (≈ 9.12 µM) in the data set on Trichophyton rubrum [13].
As to `O=C(/C=C/c1cc2ccccc2nc1Cl)c1ccc(Cl)c(Cl)c1Cl`, inhibition in [14] was half-maximal at 240 nM (IC50).
Molecule `COc1ccc(C(=O)/C=C/c2ccc(F)cc2F)c(OC)c1` displayed an IC50 against Plasmepsin II of 6000 nM.
In the data set with Enterovirus, `CCOc1cc(O)c(C(=O)/C=C/c2ccc(OC)cc2)c(OC)c1` displayed an IC50 of 0.03 µg/mL (≈ 0.0914 µM). In data set [15], this molecule came in with a half-maximal cytotoxic concentration (CC50) of 30 µg/mL (≈ 91.4 µM).
Consider `COc1cc(O)c(C(=O)/C=C/c2ccccc2)c(O)c1`, for which the values for the EC50 in the data set on Leishmania amazonensis [16] and with Leishmania amazonensis [17] were 24 µg/mL (≈ 88.8 µM) and 0.5 µg/mL (≈ 1.85 µM), respectively.
In data set [18], `Cc1ccc(S(=O)(=O)Nc2ccc(C(=O)/C=C/c3ccc(O)c(O)c3)cc2)cc1` had an IC50 of 900 nM.
Regarding `CCOc1ccc2nc(Cl)c(/C=C/C(=O)c3cc(Br)cc(Cl)c3O)cc2c1`, in the data set on Plasmodium falciparum [2], the MIC turned out to be 10 µg/mL (≈ 21.4 µM).
`COc1cc2cc(/C=C/C(=O)c3ccc(Cl)cc3Cl)cnc2cc1OC` registered an IC50 in [19] of 19000 nM.
The molecule `COc1cc(O)c(C(=O)/C=C/c2ccccc2Cl)c(OC)c1` had an MIC against Trichophyton rubrum [20] of 12.5 µg/mL (≈ 39.2 µM). Further, in the data set with Trichophyton rubrum [21], the MIC50 turned out to be 12.5 µg/mL (≈ 39.2 µM) and the MIC90 is 25 µg/mL (≈ 78.4 µM).
On to `COc1ccc(C(=O)/C=C/c2ccc(C(F)(F)F)cc2)c(OC)c1`, for which the IC50 against Plasmepsin II worked out at 6000 nM.
Turning to `O=C(/C=C/c1ccc(O)cc1)c1ccccc1` [4-HYDROXYCHALCONE], the IC50 with Leishmania major worked out at 4000 nM.
On to `O=C(/C=C/c1cnc2ccccc2c1)c1cc(Cl)ccc1Cl`, for which the IC50 in the data set on Plasmodium falciparum [22] and in the data set on Plasmodium falciparum [23] was 200 nM throughout.
In [24], `O=C(/C=C/c1cccnc1)c1ccc(NS(=O)(=O)c2cc(Cl)ccc2Cl)cc1` gave an IC50 of 500 nM.
Turning to `Cc1cccc(C(=O)/C=C(\I)c2cc3ccccc3nc2Cl)c1O`, in the data set with Plasmodium falciparum [25], the MIC worked out at 50 µg/mL (≈ 111 µM).
Turning to `COc1ccc(/C=C/C(=O)c2ccccc2O)c(OC)c1`, half-maximal inhibition in the data set on Leishmania major (IC50) was put at 4540 nM.
In the data set with Plasmodium falciparum [1], `COc1ccc(/C=C/C(=O)c2ccc(N3CCCC3)cc2)cc1` showed an inhibition of 84%.
Take `COc1ccc(/C=C/C(=O)c2ccc(NS(=O)(=O)c3cc(Cl)ccc3Cl)cc2)c(OC)c1OC`: the IC50 in data set [24] turned out to be 480 nM.
For the molecule `COc1cc(/C=C/C(=O)c2ccc(NC(=O)Nc3cccc(C(=O)/C=C/c4cc(OC)c(OC)c(OC)c4)c3)cc2)cc(OC)c1OC`, the inhibition in data set [26] was 87%.
Consider `COc1ccc(/C=C/C(=O)c2ccccc2)cc1S(=O)(=O)N1CCOCC1`, for which the selectivity ratio in data set [27] amounted to 9.
As for `O=C(/C=C/c1ccc(Cl)cc1)c1ccc(N2CCCCC2)cc1`, the inhibition in the data set with Plasmodium falciparum [1] amounted to 84%.
In the case of `O=C(/C=C\c1ccnc2ccccc12)c1cc(Cl)ccc1Cl`, the IC50 in the data set on Plasmodium falciparum [22] and with Plasmodium falciparum [23] was 200 nM in each case.
In the case of `Cc1ccc(S(=O)(=O)Nc2cccc(C(=O)/C=C/c3ccc(O)c(O)c3)c2)cc1`, in data set [18], inhibition was half-maximal at 2500 nM (IC50).
For the molecule `COc1cc2c(cc1/C=C/C(=O)c1ccccc1)[C@H]1CC[C@]3(C)[C@@H](Oc4cc(OC)c(OC)c(OC)c4)CC[C@H]3[C@@H]1CC2`, the minimal inhibitory concentration (MIC) in the data set on Plasmodium falciparum [28] came out at 2.07 µM (≈ 1.21 µg/mL). The molecule also gave an inhibition in data set [29] greater than 70%. Further, the GI50 in the data set with Plasmodium falciparum [30] was less than 5000 nM.
